In paper PMC6315298 (2018):

Test system: Mango-II (RNA, aptamer) GCGUACGAAGGAGAGGAGAGGAAGAGGAGAGUACGC
Experiment: fluorescence binding

Kd | Compound
~ 1.4 nM | CN1C=CC(=C/C=C/c2sc3ccccc3[n+]2CC(=O)NCCOCCOCCOCCNC(=O)CCCC[C@@H]2SC[C@@H]3NC(=O)N[C@@H]32)c2ccccc21
1.1 nM | CN1C=CC(=Cc2sc3ccccc3[n+]2CC(=O)NCCOCCOCCOCCNC(=O)CCCC[C@@H]2SC[C@@H]3NC(=O)N[C@@H]32)c2ccccc21
